Where two headings read alike, the source gives them in different places.
Experiments:
Assay type in all cases: in vivo
[1] = test system: Alopecurus myosuroides Huds.; assay: Foliar application test on Alopecurus myosuroides Huds. in upland field condition; conditions: 672 h, fresh weight day 28, read-out: Inhibitory rate (%); for inhibition at 1000 g/ha: dose 1000 g a.i./ha; for inhibition at 2000 g/ha: dose 2000 g a.i./ha
From the text: Next, Test Examples of the herbicide compositions according to the invention will be presented. In the following Test Examples, the ingredient (A) was mixed with the ingredient (B), (C), (D), (E) or (F) in practice. As a result, an effect exceeding the effect expected from the effects achieved by using the individual ingredients solely (i.e., a synergistic effect) was observed. The term “synergistic effect” means the effect achieved in the case where the effect achieved by two or more chemicals acting simultaneously exceeds the additive effect expected from the activities of the respective chemicals used solely. The activity expected by using a specific combination of two herbicides (hereinafter called “expectation”) can be calculated in accordance with the following Colby's formula (refer to Colby, S. R., Weeds, 15, p. 20 to 22 (1967)).
(§1) E=X+Y−(X×Y/100) Numerical formula 1
(§2) (In the above formula, E represents an inhibitory rate expected in the case of applying a mixture of p kg/ha of a herbicide A and q kg/ha of another herbicide B. X represents the inhibitory rate achieved by the application of p kg/ha of the herbicide A. Y represents the inhibitory rate achieved by the application of q kg/ha of the herbicide B.)
(§3) When the effect achieved by the mix application in practice exceeds the value E, the combination can be regarded as achieving a synergistic effect. Inhibitory rate was determined in accordance with the following numerical formula 2.
(§4) Inhibitory rate(%)=(1−fresh weight in treated lot/fresh weight in untreated lot)×100 Numerical formula 2
A resin vat having an area of 200 cm^2 was filled with upland soil that was diluvial clay loam soil. After fertilization, Alopecurus myosuroides Huds. was sowed and the seeds were evenly covered with the soil. Then, the plants were grown under controlled conditions in a greenhouse. When the test weeds grew to the 2.0 to 2.5 leaf stage, each herbicide having been diluted at a definite concentration and mixed was uniformly sprayed to the foliage with a small-sized high pressure sprayer. The preparation containing the ingredient (A) alone was prepared in accordance with Formulation Example 1 but adding diatomaceous earth to compensate for the decrease in the ingredient (B), (C) or (F). As the preparations respectively containing the ingredients (B) and (C) alone, marketed flowables were employed. As the preparation containing the ingredient (F) alone, a marketed emulsifiable concentrate was employed. The mixed preparations were prepared by mixing the same. Then, the plants were grown under controlled conditions in the greenhouse. On the day 28 after the application, the fresh weight of the above-ground part of each weed was measured and the inhibitory rate (%) was determined in accordance with Numerical Formula 2 and the expectation was calculated in accordance with Numerical Formula 1, Tables 2 and 3 show the results.

[2] = test system: Matricaria inodora L.; assay: Foliar application test on Matricaria inodora L. in upland field condition; conditions: day 28
From the text: (§5) Next, Test Examples of the herbicide compositions according to the invention will be presented. In the following Test Examples, the ingredient (A) was mixed with the ingredient (B), (C), (D), (E) or (F) in practice. […] The term “synergistic effect” means the effect achieved in the case where the effect achieved by two or more chemicals acting simultaneously exceeds the additive effect expected from the activities of the respective chemicals used solely.
as §1, §2, §3, §4
(§6) A resin vat having an area of 200 cm^2 was filled with upland soil that was diluvial clay loam soil. After fertilization, Stellaria media Villars and Matricaria inodora L. were sowed and the seeds were evenly covered with the soil. Then, the plants were grown under controlled conditions in a greenhouse. When the test weeds grew to the 2.0 to 2.5 leaf stage, each herbicide having been diluted at a definite concentration and mixed was uniformly sprayed to the foliage with a small-sized high pressure sprayer. […] As the preparation containing the ingredient (D) alone, marketed wettable granules were employed. As the preparation containing the ingredient (E) alone, a marketed flowable was employed. The mixed preparations were prepared by mixing the same. Then, the plants were grown under controlled conditions in the greenhouse.

[3] = test system: Stellaria media Villars; assay: Foliar application test on Stellaria media Villars in upland field condition; conditions: day 28
From the text: as §5, §1, §2, §3, §4, §6

[4] = Table 4, single ingredient, dose 5 g a.i./ha
[5] = Table 4, single ingredient, dose 10 g a.i./ha
[6] = Table 5, single ingredient, dose 2 g a.i./ha
[7] = Table 5, single ingredient, dose 4 g a.i./ha

## CC(C)c1ccc(NC(=O)N(C)C)cc1 [(B), isoproturon]
[1]; Table 2, single ingredient
  inhibition at 1000 g/ha: 69%
  inhibition at 2000 g/ha: 90%

## CCC(CC)Nc1c([N+](=O)[O-])cc(C)c(C)c1[N+](=O)[O-] [(C), pendimethalin]
[1]; Table 2, single ingredient
  inhibition at 1000 g/ha: 16%
  inhibition at 2000 g/ha: 22%

## COC(=O)c1ccc(C(F)(F)F)nc1S(=O)(=O)[N-]C(=O)Nc1nc(OC)cc(OC)n1.[Na+] [(D), sodium salt of flupyrsulfuron-methyl]
[2]; [4]
  Inhibitory rate (%): 46%
[2]; [5]
  Inhibitory rate (%): 67%
[3]; [4]
  Inhibitory rate (%): 77%
[3]; [5]
  Inhibitory rate (%): 85%

## COc1ncc(F)c2nc(S(=O)(=O)Nc3c(F)cccc3F)nn12 [(E), florasulam]
[2]; [6]
  Inhibitory rate (%): 70%
[2]; [7]
  Inhibitory rate (%): 80%
[3]; [6]
  Inhibitory rate (%): 75%
[3]; [7]
  Inhibitory rate (%): 90%

## CCCN(CCC)c1c([N+](=O)[O-])cc(C(F)(F)F)cc1[N+](=O)[O-] [(F), trifluralin]
[1]; Table 3, single ingredient
  inhibition at 1000 g/ha: 55%
  inhibition at 2000 g/ha: 85%
